Test results as given in the METLIN SMRT retention time set (Domingo-Almenara et al. 2019).

Experiment: gradient 5% acetonitrile 3 min, to 50% in 2 min, to 85% in 15 min, held 3 min, 100 µL/min
Details: column: Zorbax Extend-C18 2.1 x 50 mm; eluents: water / acetonitrile, 0.1% formic acid
Outline: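 The system's dead and dwell volumes were 40 μL and 900 μL, with a Zorbax Extend-C18 column (2.1 × 50 mm, 1.8 μm) run at 100 μL/min in water and acetonitrile containing 0.1% formic acid each. Pure standards were analyzed in mixtures of ~100 molecules by HPLC–quadrupole time-of-flight mass spectrometry in positive and negative ionization mode. Retention time was assigned from computationally picked, manually inspected adduct peaks.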

RP-LC retention time [s]	Structure (SMILES)
790	CC(Cc1ccco1)NC(=O)Cn1c2ccccc2c2cnn(C)c(=O)c21 (stereo unspecified)
667	c1ccc(-c2nc(-c3ccncc3)no2)c(OC2CCN(C3CCCC3)C2)c1 (stereo unspecified)
744	CCn1cc(-c2nc(-c3ccccn3)no2)c(=O)c2cc(F)c(N3CCOCC3)cc21
743	CCn1ccc(C(=O)NCc2c(-c3ccccc3)nc3sc(C)nn23)n1
679	CC(=O)NCC(=O)NCc1nn(Cc2ccccc2)c2ccccc12
1060	CN(Cc1ccccc1)C(=O)C1(c2ccc(NC(=O)C3CC3)cc2)CCCCC1
714	CC1=C(c2ccccc2)S(=O)(=O)N=C1N1CCCN(C(=O)NC(C)C)CC1
680	CN1C(=O)c2cccn2CC1CNS(=O)(=O)c1cccc2nsnc12 (stereo unspecified)
708	Cc1ccc(CNC(=O)C2CCCN(c3nnc4ccccn34)C2)cc1C (stereo unspecified)
624	CCN(CC)C(=O)c1ccc2oc(CN3CCN(C(=O)NCC(C)C)CC3)nc2c1
923	Cc1ccc(C)c(-c2cc3c(=O)n(Cc4noc(-c5ccccn5)n4)ccn3n2)c1
598	Cc1ccc(Nc2c(C(=O)N3CCOCC3)cnc3nc(C)ccc23)cc1
971	O=C(C1CCN(S(=O)(=O)c2cc(-c3noc(C4CCC4)n3)cs2)CC1)N1CCCCC1
735	CCCNc1cc(N2CCCC(CCC(=O)Nc3ccccc3CC)C2)ncn1 (stereo unspecified)
839	CC(=O)c1ccc(NC(=O)C2CCCN(c3nc(C)nc4oc(C)c(C)c34)C2)cc1 (stereo unspecified)
748	Cc1ccc(-c2ccc(-n3nc(C)c(S(=O)(=O)NCCN4CCCCC4C)c3C)nn2)cc1C (stereo unspecified)
590	CN1CCOc2ccc(NC(=O)C3CCN(S(C)(=O)=O)CC3)cc2C1=O
1040	Cc1ccc(NC(=O)Nc2nc3ccccc3s2)cc1NC(=O)Nc1nc2ccccc2s1

RP-LC retention time [s]	Structure (SMILES)
774	CN1c2ccc(F)cc2C(=O)NC12CCN(C(=O)Cc1ccccc1Cl)CC2
579	COc1ncccc1C(=O)NCc1nnc(C)o1
928	COc1ccc(-c2cc(C(=O)Nc3ccccc3F)nn2C2CCS(=O)(=O)C2)cc1 (stereo unspecified)
598	Cc1cccc2sc(N(CCN(C)C)C(=O)c3ccc(S(=O)(=O)N(C)C)cc3)nc12
995	CCCCn1cc(S(=O)(=O)Nc2cc(F)ccc2C)c2cccnc21
713	O=C(NCc1csc(C2CCN(C(=O)c3cc(F)ccc3Cl)CC2)n1)C1CCC1
781	Cc1nnc(NC(=O)c2csc(Nc3ccc(OC(F)F)cc3)n2)s1
604	CCN1CCC(N(Cc2cccs2)C(=O)Nc2ccc(OC)c(OC)c2)CC1
620	COc1ccc(N(CC(O)CNCCC(C)C)S(=O)(=O)c2ccc(C)cc2)cc1 (stereo unspecified)
734	CCn1cc(C)c(C(=O)O)c1CC(=O)NCc1ccc2c(c1)OCO2
784	O=C(Cn1ccc2sccc2c1=O)Nc1cc(F)cc(F)c1
763	Cc1cc(Br)ccc1NC(=O)C1CCN(C(=O)c2cccn2-c2cccnc2)CC1
678	COc1cccc(-c2noc(N3CCN(c4ccccn4)CC3)n2)c1
598	COc1ccc(N2CC(C(=O)N3CC4CC3C(=O)O4)CC2=O)cc1 (stereo unspecified)
870	O=C(CCSc1ccccc1)N1CCN(CC(F)(F)F)CC1
717	O=C1CCCc2cc(S(=O)(=O)N3CCC(C(=O)NCCc4cccs4)CC3)ccc2N1
962	COc1ccc(-c2noc(Cn3nc(-c4ccc(C)cc4)ccc3=O)n2)cc1OC
683	CCn1cnc2cc(-c3noc(C(C)NS(=O)(=O)c4ccc(C)cc4)n3)ccc21 (stereo unspecified)

Continued, molecule first:

Structure (SMILES)	RP-LC retention time [s]
CCCS(=O)(=O)N1[C@H]2CC[C@@H]1c1cnc(-c3ccc(F)cc3)nc1C2	1010
COc1ccc(S(=O)(=O)N2CC=C(c3cn(C)c4ncccc34)CC2)cc1Cl	1010
COCc1cc(=O)n(CC(=O)Nc2cc(C)ccc2C)c(N)n1	631
O=C(N[C@@H]1CN(Cc2ccsc2)CC[C@@H]1CO)c1ccccc1	591
Cc1nnc(-c2cc(C)n(CC(=O)Nc3ccc(Cl)cc3C)c2C)o1	810
COc1ccccc1-n1ccnc(NC(=O)Nc2cccc(F)c2)c1=O	919
O=C1CC(c2noc(-c3cc(F)ccc3F)n2)CN1c1ccc(F)cc1 (stereo unspecified)	944
Cc1noc(C2CN(CC(=O)N3CCN(c4ccc(Cl)cc4)CC3)C2)n1	590
COc1ccccc1-c1nc(Cn2ccnc2)no1	580
COCCC(=O)NCCC1CCN(C(=O)Nc2cc(F)cc(F)c2)CC1	695
C=CCN1CCN(C(=O)[C@@H]2[C@H](c3cc(OC)c(OC)c(OC)c3)c3cc4c(cc3[C@H](O)[C@H]2CO)OCO4)CC1	604
CC1CCCN(CCCNC(=O)Cn2c3ccccc3c3cnn(C)c(=O)c32)C1 (stereo unspecified)	612
O=C(NCCc1c[nH]c2ccc(F)cc12)c1ccc(F)cc1-n1cnnn1	756
COc1ccc(S(=O)(=O)N2CCC(n3c(-c4ccoc4)nc4cccnc43)C2)cc1 (stereo unspecified)	831
CCc1cnn2c(NCc3ccc[n+]([O-])c3)cc(N3CCCC[C@H]3CCO)nc12	637
CC1CCN(C(=O)C2CCN(c3cc(N4CCCCC4)ncn3)CC2)CC1	676
NC(=O)c1cc(-c2cccc(Cl)c2)n[nH]1	679
O=C(Cn1cnc2nc3c(cc2c1=O)CCCC3)NC1CCCCCC1	662
CC(C)c1ccc(NC(=O)Cn2c(=O)cc(-c3nc(C4CC4)no3)c3ccccc32)cc1	1120
COc1ccc(OC)c(NC(=O)c2nc(N(C)C)c3c(C)cc(C)nc3n2)c1	676
Cc1nn(-c2ccc(C(=O)NC3CCCC3)cn2)c(C)c1C	907
Cc1nnc(N2CCCC(C(=O)NCCc3ccc(Cl)cc3)C2)c2nn(-c3ccccc3)c(C)c12 (stereo unspecified)	784
CCc1ccc(-c2nc(C3CC(=O)N(c4ccc(C)cc4)C3)no2)cc1 (stereo unspecified)	1110
COCCC1(NC(=O)c2ocnc2C)CCN(S(C)(=O)=O)CC1	614
O=C(Cc1nnc(-c2ccccc2)o1)NCc1ccccn1	577
COc1cc(Cl)c(NC(=O)Cn2cc(-c3nnc(C)o3)c3ccccc32)c(OC)c1	836
Cc1c(N2C(=O)[C@@H]3[C@H](O)CCN3C2=O)ccc(C#N)c1Cl	765
CCOCCCNC(=O)N1CCN(c2nc3ccccc3n(Cc3ccc(C)cc3)c2=O)CC1	1010
Cn1cnc(S(=O)(=O)NCCC2CCN(C(=O)c3ccccc3)CC2)c1	653
COc1cccc(C(=O)NCCOc2cccc(C(F)(F)F)c2)c1OC	972
